This is an account of results in publication PMC10864208, “Characterizing the protein–protein interaction between MDM2 and 14-3-3σ; proof of concept for small molecule stabilization” (The Journal of Biological Chemistry, 2024).

In one experiment the test system is 14-3-3 PPIs. To be noted: cited from earlier work. From the text: To investigate the feasibility of this, the effect of fusicoccin A (FC-A) on the PPI was studied using FP, ITC, and native MS.
In experiment [1] the test system is 14-3-3σ/MDM2_159-173^pS166 peptide. Description: FP, FC-A effect on 14-3-3σ/MDM2 159-173 pS166. The experiment is classed as binding. The conditions noted are these: 1.0 mM FC-A, 10 nM FITC-labeled MDM2_159-173^pS166; accurate fit not obtained. From the text:
(§1) . Red arrows highlight peaks for the ternary complex.

For the next experiment, the system named is 14-3-3σ/MDM2 complex. Nature of the experiment: native mass spectrometry, ternary complex with FC-A. The conditions noted are these: for relative abundance of ternary complex 14-3-3σ + MDM2 + FC-A (native MS): pH 6.8, SD, n = 3. The class given is binding. The method, then:
as §1
14-3-3 σ was buffer exchanged into 100 mM ammonium acetate pH 6.8 using a 30 kDa molecular weight cut-off Amicon Ultra centrifugal filter (Merck Millipore) and stored at −80 °C prior to use. […] . All native MS experiments were performed on an Orbitrap Eclipse Tribrid mass spectrometer (Thermo Fisher Scientific, Bremen) coupled to a nanoelectrospray source that used gold-coated borosilicate glass capillaries, pulled in-house. Positive ionization mode was used throughout with the capillary voltage set to 1.2 kV. The source temperature was set at 275 °C, in-source dissociation at 25, S-lens RF at 100. High pressure mode was used and a mass range of 2000 to 8000 m/z used to monitor the binding equilibria. Mass spectra were acquired using a maximum ion injection time of 50 ms. The automatic gain control was set to 1 x 10^6 and the ions detected in the Orbitrap with resolution set to 7500. All data was analyzed using XCalibur (v.4.1). All proteins and protein complexes were identified based on their theoretical mass.
Analytical grade ammonium acetate and LC-MS grade Dimethyl Sulfoxide (DMSO) were purchased from Fisher Scientific. 14-3-3 σ was buffer exchanged into 100 mM ammonium acetate pH 6.8 using a 30 kDa molecular weight cut-off Amicon Ultra centrifugal filter (Merck Millipore) and stored at -80 °C prior to use. The lyophilised MDM2161-191^pS166/pS186 31mer peptide (see Table S4) was diluted into 100mM ammonium acetate pH 6.8. […] . To quantify each complex, the relative abundance of the complexes observed was assumed to reflect their abundance in solution. Due to overlapping peaks, 15+ ions were excluded from analysis. […] . Standard deviations of the abundance of each complex were calculated from 3 replicates.

In another experiment the target is T1, 14-3-3σ (Homo sapiens, UniProt P31947).
T1 sequence (P31947 1-248): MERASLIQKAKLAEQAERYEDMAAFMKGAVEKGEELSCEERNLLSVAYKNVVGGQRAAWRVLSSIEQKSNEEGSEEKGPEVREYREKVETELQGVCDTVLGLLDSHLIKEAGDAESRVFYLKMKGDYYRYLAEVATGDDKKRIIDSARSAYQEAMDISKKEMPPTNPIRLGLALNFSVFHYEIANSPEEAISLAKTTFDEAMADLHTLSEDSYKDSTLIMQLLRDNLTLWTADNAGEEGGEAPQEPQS
Description: fluorescence polarization (FP), direct binding to 14-3-3σ. The conditions noted are these: for binding to 14-3-3σ by FP (in words) / maximum polarization level (in words): FITC-labeled peptide 10 nM; for binding to 14-3-3σ by FP (in words): pH 7.5; for maximum polarization level (in words): 14-3-3σ titration. In general terms: Fluorescence polarisation rises when a labelled molecule tumbles more slowly, as on binding a larger partner.

Experiment [2] concerns the target 14-3-3σ/MDM2_179-193^pS186 peptide (Homo sapiens, UniProt P31947+Q00987). Nature of the experiment: biochemical.
Description: For all experiments, a fixed concentration of 10 nM fluorescently labeled peptide (FITC) was used. […] All data was analyzed using GraphPad Prism 7 and sigmoidal curves were fitted using the following equation: Y=Bottom + (Top-Bottom)/(1+10ˆ((Log app.Kd-X)∗HillSlope)), where Y = mP value; X = log 14-3-3 concentration; top and bottom = plateaus in mP.
A further experiment has as its target T2, 14-3-3ζ (Homo sapiens, UniProt P63104).
T2 sequence (P63104 1-245): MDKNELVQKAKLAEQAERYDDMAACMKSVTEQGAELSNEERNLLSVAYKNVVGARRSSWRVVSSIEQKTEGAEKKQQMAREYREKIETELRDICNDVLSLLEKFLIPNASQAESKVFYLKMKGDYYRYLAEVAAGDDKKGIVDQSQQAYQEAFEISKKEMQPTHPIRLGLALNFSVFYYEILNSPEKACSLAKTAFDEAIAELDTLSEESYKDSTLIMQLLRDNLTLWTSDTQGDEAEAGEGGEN
Nature of the experiment: fluorescence polarization (FP), direct binding to 14-3-3ζ.

For a further experiment, the system named is 14-3-3σ and 14-3-3ζ. Description: ITC, mono-phosphorylated MDM2 peptides. The experiment is classed as binding. The conditions noted are these: N-acetylated peptide 1.0 mM into 14-3-3 100 µM, 25 °C, pH 7.5, Malvern MicroCal ITC200.

Where two headings read alike, the source gives them in different places. Non-standard residues stand in square brackets, D forms with d. Residues, ends and D or L forms follow the SMILES beside them. pS = N[C@@H](COP(=O)(O)O)C(=O)O

For the molecule `C=CC(C)(C)OC[C@H]1O[C@H](O[C@@H]2C3=C([C@H](C)COC(C)=O)C[C@H](O)[C@]3(C)/C=C3/[C@@H](COC)CC[C@H]3[C@@H](C)[C@H]2O)[C@H](O)[C@@H](OC(C)=O)[C@@H]1O` [FC-A, fusicoccin A], the “stabilization of di-phosphorylated mode I/II motif peptides, e.g. CFTR (in words)” value in the experiment on 14-3-3 PPIs (ref [27]) is “shown to stabilize peptides containing mode I/II type di-phosphorylated binding motifs”. For the same molecule, the “stabilization of mode III 14-3-3 PPIs (in words)” value in the experiment on 14-3-3 PPIs (ref [43]) was “predominantly stabilizes mode III 14-3-3 PPIs”. Moreover, the “effect of FC-A on binding (FP, in words)” value in experiment [1] was “small effect”. The “relative abundance of ternary complex 14-3-3σ + MDM2 + FC-A (native MS)” value in the experiment on 14-3-3σ/MDM2 complex (14-3-3σ 5 μM : MDM2 10 μM : FC-A 5 μM) amounted to 6 ± 3%; in the experiment with 14-3-3σ/MDM2 complex (14-3-3σ 5 μM : MDM2 10 μM : FC-A 25 μM), 15 ± 5%. In addition, the “composition of ternary complex (native MS, in words)” value in the experiment on 14-3-3σ/MDM2 complex (14-3-3σ 5 μM, MDM2 peptide 10 μM, FC-A 5 or 25 μM) was “a 14-3-3 dimer, a single MDM2 di-phosphorylated peptide, and a single FC-A molecule”.
Regarding `CC[C@H](C)[C@H](NC(=O)[C@H](CO)NC(=O)[C@H](CC(=O)O)NC(=O)[C@H](COP(=O)(O)O)NC(=O)[C@H](CCCCN)NC(=O)[C@H](Cc1c[nH]cn1)NC(=O)[C@H](CCCNC(=N)N)NC(=O)[C@H](CCCCN)NC(=O)[C@H](CCCNC(=N)N)NC(=O)[C@H](CCC(N)=O)NC(=O)[C@H](CCCNC(=N)N)NC(C)=O)C(=O)N[C@@H](CO)C(=O)N[C@@H](CC(C)C)C(=O)N[C@@H](CO)C(=O)N[C@@H](Cc1ccccc1)C(N)=O` [MDM2_179-193^pS186] (Ac-RQRKRHK[pS]DSISLSF-NH2), the dissociation constant (Kd) came to 26.2 ± 17.9 µM on 14-3-3σ; 22.3 ± 21.5 µM at 14-3-3σ (Kd (FP), duplicate data, duplicate data set (Fig. S1A), 14-3-3σ titrated to 10 nM FITC-labelled peptide, pH 7.5, room temperature, SD, n=3); 24.6 ± 12 µM in experiment [2]; 11.4 ± 5.4 µM on 14-3-3ζ.
As to “AcHN-^159SSRRRAI(pS)ETEENSD^173-NH2 (Ac-SSRRRAI[pS]ETEENSD-NH2; SMILES CC[C@H](C)[C@H](NC(=O)[C@H](C)NC(=O)[C@H](CCCNC(=N)N)NC(=O)[C@H](CCCNC(=N)N)NC(=O)[C@H](CCCNC(=N)N)NC(=O)[C@H](CO)NC(=O)[C@H](CO)NC(C)=O)C(=O)N[C@@H](COP(=O)(O)O)C(=O)N[C@@H](CCC(=O)O)C(=O)N[C@H](C(=O)N[C@@H](CCC(=O)O)C(=O)N[C@@H](CCC(=O)O)C(=O)N[C@@H](CC(N)=O)C(=O)N[C@@H](CO)C(=O)N[C@@H](CC(=O)O)C(N)=O)[C@@H](C)O; UniProt Q00987 159-173, looked up, fragment) [MDM2_159-173^pS166]”, the “binding to 14-3-3σ by FP (in words)” value with 14-3-3σ was “bound weakly to 14-3-3σ and saturation was not observed”. The “binding by ITC (in words)” value in the experiment on 14-3-3σ and 14-3-3ζ is “could not be detected”. In the experiment with 14-3-3ζ (FITC-labeled peptide 10 nM, pH 7.5), the “binding to 14-3-3ζ by FP (in words)” value was “bound weakly to 14-3-3ζ, and no effective Kd value could be obtained”.
As for “FITC-Ahx-^159SSRRRAI(pS)ETEENSDELSGERQRKRHKSDSISLSF^193-NH2 (SSRRRAISETEENSDELSGERQRKRHKSDSISLSF; phosphoSer166; FITC label; UniProt Q00987 159-193, looked up, fragment) [MDM2_159-193^pS166]”, in the experiment with 14-3-3σ, the “maximum polarization level (in words)” value is listed as “small increase in the maximum polarization value”; the “binding to 14-3-3σ by FP (in words)” value was “saturation was not observed and an effective Kd value could not be obtained”.
“FITC-Ahx-^159SSRRRAISETEENSDELSGERQRKRHK(pS)DSISLSF^193-NH2 (SSRRRAISETEENSDELSGERQRKRHKSDSISLSF; phosphoSer186; FITC label; UniProt Q00987 159-193, looked up, fragment) [MDM2_159-193^pS186]”: in the experiment with 14-3-3σ, the “maximum polarization level (in words)” value is listed as “comparable to that observed for the di-phosphorylated MDM2_161-191^pS166/pS186 peptide” and the “binding to 14-3-3σ by FP (in words)” value was “much weaker affinity than the 15 amino acid MDM2_179-193^pS186 peptide”.

The Kd is the free concentration of one partner at which half of the binding sites on the other are occupied at equilibrium, for simple one-to-one binding.
